Experimental data as given in patent publication US5698518A, “Method for regulating inflammation and tumor growth with calmodulin, calmodulin analogues or calmodulin antagonists” (Oklahoma Medical Research Foundation, priority 1994, dated 1997).

Legend:
[1] = tested on: elastase release in whole blood over porcine aortic segments; test: Elastase release in whole blood over pig aorta segments in situ; type: cell-based; details: ASA pretreatment; intact or denuded segment
Experimental: (§1) To exclude the possibility that the inhibitory activity of endothelial monolayers was merely an artifact of tissue culture, experiments were performed using intact endothelium in situ in segments of porcine aorta. Normal farm pigs (Spotted Polland) weighing 30-35 kg were euthanized with pentobarbital and the thoracoabdominal aorta removed aseptically. The harvested aorta was rinsed in HBSS containing penicillin 50 IU/ml and streptomycin 50 μg/ml. The aorta was then opened longitudinally along its dorsal surface. The endothelial cell surface was left intact, or denuded mechanically by scraping gently ten times with a metal spatula. The opened aorta was then clamped into a multi-well plexiglass template device, such that the intimal surface of the aorta formed the bottom of the well. The wells were washed with HBSS and blood added and processed exactly as above for 24 well plates.
(§2) As with cultured endothelial cells, TNF release was inhibited when whole blood was incubated in the presence of an intact aortic endothelial surface as compared to an adjacent mechanically denuded segment of vessel (FIG. 21; n=6).

[2] = tested on: inhibitory activity of porcine aortic endothelium on TNF release in whole blood; test: TNF release in whole blood over pig aorta segments in situ; type: cell-based; details: ASA pretreatment of vessel wall
Experimental: as §1, §2

cultured HUVECs = test: Prostaglandin release from cultured HUVECs (competitive enzyme immunoassay); type: cell-based, human; details: ASA 10^-4 M for 1 hour
Experimental: Endothelial cells were treated with inhibitors of enzymes responsible for production of prostaglandins and nitric oxide. In each case, endothelial cells were pretreated by addition of the inhibitor to the culture medium for one hour, before the addition of blood and the TNF-provoking agonist (e.g., LPS) to the wells. Acetylsalicylic acid (ASA, aspirin), (Sigma, St. Louis, Mo.), which is an irreversible inhibitor of the cyclooxygenase enzyme, was removed after the incubation by washing the endothelial cells three times with Hanks balanced salt solution (HBSS) before adding the blood. Indomethacin and N^G -nitro-L-arginine methyl ester (L-NAME; Sigma), which are competitive inhibitors of cyclooxygenase, and nitric oxide synthase, respectively, were added to the HBSS wash solution and again directly to the blood as soon as it had been pipetted into the wells, so that the target enzyme would have no opportunity to escape inhibition. With indomethacin (which has been reported to increase TNF release from macrophages by blocking autocrine production of PGE2), controls were run in which indomethacin was added to the blood in the absence of endothelium.
Therefore, endothelial monolayers were treated with ASA (10^-4 M for 1 hour), an irreversible cyclooxygenase inhibitor. ASA attenuated the inhibitory activity, but by less than 40% of the total inhibition. […]

[3] = tested on: elastase release in whole blood over endothelial cell monolayer; test: Augmentation of elastase release in whole blood by HUVEC monolayer; type: cell-based, human; details: whole blood with endotoxin
Experimental: An assay similar to that described in Example 2 was developed for neutrophil elastase in the same plasma samples (measured as the complex between elastase, and α-1-antitrypsin) using a murine monoclonal antibody (HEL 1076) to elastase as capture and biotinylated murine monoclonal antibody (HAT 1099) as detector. The useful range of this assay was 0.05 to 5 nM complex. These antibodies were obtained by immunizing mice with human neutrophil elastase, human α-1-antitrypsin (Athens Research and Technology, Athens, Ga.) and a complex of both using the method detailed in Example 2. Antibodies were screened for their ability to react with native and complexed antigen. Antibodies were purified from ascites using protein G (Pharmacia, Piscataway, N.J.) affinity chromatography and biotinylated using NHS-LC-biotin (Pierce). In addition to the inhibition of TNF release, calmodulin also augmented elastase release similar to that observed with the endothelial cell monolayer (FIG. 1, authentic calmodulin; FIG. 2, purified endothelial cell calmodulin).
In addition, elastase release in whole blood measured as the complex of elastase with α-1 protease inhibitor (α-1 antitrypsin) was augmented by the presence of an endothelial cell monolayer as shown in FIG. 11 (n=8). […]

[4] = tested on: endothelial inhibition of LPS-induced TNF release in whole blood; test: Endothelial (HUVEC) inhibition of LPS-induced TNF release in whole blood, endothelium treated with enzyme inhibitors; type: cell-based, human
Experimental: (§3) Blood from healthy volunteers was drawn from the antecubital vein into a heparinized syringe (10 U/ml final; UpJohn, Kalamazoo, Mich.). 24-well culture plates (Costar, Cambridge, Mass.) were coated with 2% (w/v) gelatin (Sigma) and washed three times with Hanks balanced salt solution (HBSS) (Gibco BRL, Gaithersburg, Md.). Only the center eight wells were used to minimize evaporation. Then, 200 μl of blood was pipetted into each well. For comparative experiments involving endothelial cell monolayers, endothelial cells were seeded onto gelatin-coated wells at 3-5×10^5 cells per well 48 hours prior to experimentation. These wells were washed three times with HBSS and heparinized whole blood added as above. In most cases, the same plate would contain wells with and without endothelium for comparison purposes.
(§4) Test reagents suspended in HBSS (8 to 10 μl) were added to the wells immediately after the blood. Plates were incubated at 37° C. in room air/5% CO2 on an orbital shaker at 150 rpm; incubations were four hours unless otherwise noted. The blood then was transferred to microcentrifuge tubes and centrifuged at 500× g for 10 minutes. The resulting platelet-poor plasma was collected and assayed for TNF immediately, as per Example 2 or stored frozen at -70° C. until use.
Endothelial cells were treated with inhibitors of enzymes responsible for production of prostaglandins and nitric oxide. […]

[5] = tested on: TNF release in whole blood; test: TNF release in whole blood evoked by other agonists; type: cell-based, human; details: 0.3 to 1 μg/ml
Experimental: as §3, §4
In most experiments, LPS (from E. coli strain 055:B5, Difco) was used to stimulate TNF release. […]

[6] = tested on: LPS-induced TNF release in whole blood; test: LPS-induced TNF release in whole blood (TNF ELISA); type: cell-based, human; details: for inhibition of LPS-induced TNF release: 10^-6 M, added directly to whole blood
Experimental: Immunoreactive TNF was measured using a sandwich ELISA sensitive to ≈0.1 ng/ml TNF. 96-well Immulon IV microtiter plates (Dynatech, Chantilly, Va.) were coated overnight at 4° C. with a monoclonal anti-TNF antibody, TNF 1286 or TNF 1311 (5 μg/ml in TBS, 50 μl per well).
The next morning the ELISA plates were washed three times with TBS with 0.1% (v/v) Tween 20 (Sigma) and blocked for one hour with 1% BSA in TBS. Plates were then washed three times. Plasma samples were diluted 1:5 in 0.1% BSA in TBS, and 50 μl/well pipetted onto the plates and allowed to incubate at 37° C. for one hour. TNF standards were made up by addition of known amounts of recombinant human TNF-α (Upstate Biologicals Inc., Lake Placid, N.Y.) to pooled heparinized normal plasma diluted 1:5 in TBS/BSA. All samples and standards were assayed in duplicate. Plates were washed three times and biotinylated goat anti-TNF antibody or biotinylated monoclonal TNF 1289 (2 μg/ml in 0.1% BSA in TBS, 50 μl/well) was applied and incubated at 37° C. for one hour. Plates were washed three times and streptavidin-alkaline phosphatase (Gibco BRL, Grand Island, N.Y.) (0.025 μg/ml in 0.1% BSA in TBS, 50 μl/well) was applied and incubated at 37° C. for one hour. Following a final four washes, an amplified substrate (Gibco BRL) was applied according to the manufacturer's directions. Plates were read at 492 nm on a microtiter plate reader (Molecular Devices, Palo Alto, Calif.) and values obtained by comparing unknowns to a standard curve using a four-parameter fit. The useful range of this assay was 1-50 ng/ml.
as §3, §4
In most experiments, LPS (from E. coli strain 055:B5, Difco) was used to stimulate TNF release. Other agonists used were zymosan (Sigma, St. Louis, Mo.), muramyl dipeptide (Sigma), recombinant human interferon-γ (Mallinckrodt, Paris, Ky.), and recombinant human interleukin-1β (Collaborative Research, Bedford, Mass.). In some experiments, prostaglandin E2 (PGE2) and the stable prostacyclin analogue, carbacyclin (both from Cayman Chemical, Ann Arbor, Mich.) were added just before the LPS. These were dissolved as a 2.84×10^-3 M stock solution in DMSO and diluted in HBSS; buffer controls with the same concentrations of DMSO were assayed in parallel.

[7] = tested on: human peripheral blood mononuclear cells (PBMC); test: LPS-induced TNF production by isolated peripheral blood mononuclear cells; type: cell-based; details: PGE2 10^-7 M, n=4, read-out: inhibition of TNF production by isolated PBMCs
Experimental: To establish whether the inhibitory effect of the endothelium was exerted directly on monocytes or required an intermediary blood cell, human peripheral blood mononuclear cells (PBMC) were prepared from freshly drawn heparinized blood by density-gradient separation on Ficoll-Hypaque (Mono-Poly Resolving Medium, Flow Laboratories, McLean, Va.). Furmaniak-Kazmierczak, et al., "Protein S enhances C4b binding protein interaction with neutrophil," Blood 81:405-411 (1993). Isolated PBMC were washed three times with RPMI 1640 (Mediatech) and resuspended at a concentration of 3-5×10^6 cells/ml. 200 μl aliquots were added to 24-well tissue culture plates, incubated, and assayed as described with whole blood.
Mononuclear cells (4.47±0.94×10^6 /ml) isolated from fresh whole blood released TNF dose-dependently in response to LPS in a manner similar to whole blood.

[8] = tested on: TNF release in whole blood in response to E. coli; test: TNF release in whole blood in response to gentamicin-killed E. coli; type: cell-based, human; details: data not shown
Experimental: Whole gentamicin-killed E. coli were examined as another stimulus that probably evokes TNF release by several different pathways; for example, they serve as a phagocytic stimulus and also activate complement components. A single colony of E. coli serotype B7 086a61 (ATCC#33985) on an LB plate was cultured overnight in LB Medium (Difco, Detroit, Mich.). The next morning the cells were washed three times in Hanks balanced salt solution (HBSS) and then resuspended in HBSS to 5.7×10^9 cells per ml. Before addition to blood, bacteria were killed by treatment with gentamicin sulfate (Elkins-Sinn, Cherry Hill, N.J.), 500 μg/ml for one hour. TNF release assays were performed according to procedures given in Example 2.

CC(=O)Oc1ccccc1C(=O)O [ASA, Acetylsalicylic acid]
effect on stimulation of elastase release by aortic segments [1]: did not significantly alter
effect on TNF-inhibitory activity of aortic endothelium [2]: partially reduced
PGE2 release from cultured HUVECs after treatment (cultured HUVECs; untreated 0.93 nM, 0.2 nM is limit of detection): < 0.2 nM
prostacyclin release from cultured HUVECs after treatment (cultured HUVECs; untreated 4.0 nM): 0.26 nM
effect on endothelial augmentation of elastase release [3]: not changed

COC(=O)[C@@H](N)CCCN=C(N)N[N+](=O)[O-] [L-NAME, N^G -nitro-L-arginine methyl ester]
effect on endothelial inhibition of TNF release ([4]; L-NAME 10^-4 M): No reduction

CC(=O)N[C@H]1C(O)O[C@H](CO)[C@@H](O)[C@@H]1O[C@H](C)C(=O)N[C@@H](C)C(=O)N[C@H](CCC(=O)O)C(N)=O (some centres unmarked) [Muramyl dipeptide, muramyl dipeptide]
TNF release agonist activity alone [5]: weak agonists

CCCCC[C@H](O)/C=C/[C@H]1[C@H](O)CC(=O)[C@@H]1C/C=C\CCCC(=O)O [PGE2, prostaglandin E2]
inhibition of LPS-induced TNF release ([6]; no endothelial cells): almost complete suppression
inhibition at 0.1 µM ([6]; Homo sapiens, PGE2 10^-7 M, n=12, read-out: inhibition of whole-blood TNF production): 83.6 ± 2.7%
potency relative to carbacyclin (inhibition of LPS-induced TNF release) ([6]; whole blood, no endothelial cells): at least 10 fold
inhibition at 0.1 µM [7]: 63.9 ± 9.6%

CCCCC[C@H](O)/C=C/[C@@H]1[C@H]2C/C(=C/CCCC(=O)O)C[C@H]2C[C@H]1O [carbacyclin]
inhibition of LPS-induced TNF release ([6]; no endothelial cells): almost complete suppression

COc1ccc2c(c1)c(CC(=O)O)c(C)n2C(=O)c1ccc(Cl)cc1 [indomethacin, Indomethacin]
effect on LPS-induced TNF release in the absence of endothelium ([6]; indomethacin added to blood, no endothelium): marginally higher TNF release
effect on inhibitory effect of endothelial cells in suspension on TNF release ([4]; endothelial cells in suspension): did not block
effect on endothelial augmentation of elastase release [3]: not changed

Polymyxin B
effect on TNF response to LPS ([6]; whole blood, data not shown): dose-dependently antagonized
effect on TNF response to E. coli [8]: unaffected
